Experimental data reported in article PMC7562955 (Nature Communications, 2020).

Target: T1, TLR7 (Homo sapiens, UniProt Q9NYK1)
T1 sequence (Q9NYK1 27-1049): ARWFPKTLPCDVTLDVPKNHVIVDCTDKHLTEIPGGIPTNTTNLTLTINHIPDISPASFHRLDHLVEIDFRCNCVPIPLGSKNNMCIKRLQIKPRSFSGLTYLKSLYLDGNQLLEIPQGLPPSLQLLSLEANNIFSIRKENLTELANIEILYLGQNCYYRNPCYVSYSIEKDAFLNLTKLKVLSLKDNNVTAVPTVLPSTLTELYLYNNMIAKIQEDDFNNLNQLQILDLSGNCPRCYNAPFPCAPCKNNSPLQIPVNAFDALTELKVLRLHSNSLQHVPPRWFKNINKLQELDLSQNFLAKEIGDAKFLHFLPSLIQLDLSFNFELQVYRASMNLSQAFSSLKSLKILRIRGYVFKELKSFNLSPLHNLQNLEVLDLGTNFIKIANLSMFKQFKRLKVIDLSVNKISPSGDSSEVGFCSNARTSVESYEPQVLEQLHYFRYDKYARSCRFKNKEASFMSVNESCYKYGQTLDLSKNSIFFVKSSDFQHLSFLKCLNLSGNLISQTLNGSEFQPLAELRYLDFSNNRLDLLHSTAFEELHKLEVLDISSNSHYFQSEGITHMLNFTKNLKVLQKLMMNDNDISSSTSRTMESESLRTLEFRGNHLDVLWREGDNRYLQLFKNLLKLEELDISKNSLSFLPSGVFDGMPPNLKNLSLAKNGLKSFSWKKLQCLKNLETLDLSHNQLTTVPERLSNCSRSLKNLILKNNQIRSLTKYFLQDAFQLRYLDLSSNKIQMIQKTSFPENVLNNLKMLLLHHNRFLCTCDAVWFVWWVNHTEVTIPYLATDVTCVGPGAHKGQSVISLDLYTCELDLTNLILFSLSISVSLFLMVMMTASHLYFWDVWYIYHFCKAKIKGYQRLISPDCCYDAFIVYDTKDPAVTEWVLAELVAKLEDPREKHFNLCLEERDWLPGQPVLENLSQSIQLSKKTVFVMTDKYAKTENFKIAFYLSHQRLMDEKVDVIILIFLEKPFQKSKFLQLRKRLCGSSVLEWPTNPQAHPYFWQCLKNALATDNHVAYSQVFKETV
Assay: Dose-response relationship between antagonist and R848, human TLR7 reporter gene assay
Format: cell-based
Design: host or cells: HEK293 (TLR7/NF-κB/SEAPorter)
Procedure: Compounds were dissolved in dimethyl sulfoxide. Human TLR7 reporter cell line (Novus Biological) were seeded in 96-well microtiter plate (AGC techno glass) at 5 × 10^4 cells/well in DMEM (GIBCO) with 10% fetal bovine serum (GIBCO), and 10 μg ml^−1 Blastcidin S HCl (GIBCO) and incubated at 37 °C in 5% CO2. The plates were incubated over-night and then addition with various concentrations of compound. After 30 min, R848 (human TLR7/8 ligand) that was diluted with the medium was added, wherein final concentration was adjusted to 0.01, 0.03, 0.1, 0.3, 1, 3, 10, 30, 100, 300 and 1000 μM. The plates were then incubated an additional 20 ± 1 h at 37 °C in 5% CO2, and then the SEAP activity was measured as activation of human TLR7. The SEAP activity was evaluated as follows: pNPP (Invitrogen) was added to the incubated sample (50 μl/well); after 15 min, 4 mol l^−1 sodium hydroxide solution (nacalai tesque) was added thereto (50 μl/well) to quench the reaction; and the absorbance of each sample was measured at 405 nm with microplate reader SpectraMax M4 (Molecular Devices).

SMILES: CCOc1nc(N)c2nc(-c3cncc(F)c3)n(Cc3ccc(CN4C[C@@H]5C[C@H]4CN5C)cc3)c2n1 [Cpd-6]
- mode of action against R848: acted as antagonists
- TLR7 reporter signal (Cpd-6 0.001 µM, log10[R848 (µM)] 0): 12.4492
- TLR7 reporter signal (Cpd-6 0.001 µM, log10[R848 (µM)] 0.477121): 42.5203
- TLR7 reporter signal (Cpd-6 0.001 µM, log10[R848 (µM)] 1): 87.7267
- TLR7 reporter signal (Cpd-6 0.001 µM, log10[R848 (µM)] 1.47712): 99.7073
- TLR7 reporter signal (Cpd-6 0.001 µM, log10[R848 (µM)] 2): 100.849
- TLR7 reporter signal (Cpd-6 0.001 µM, log10[R848 (µM)] 2.47712): 102.716
- TLR7 reporter signal (Cpd-6 0.001 µM, log10[R848 (µM)] 3): 99.4752
- TLR7 reporter signal (Cpd-6 0.001 µM, log10[R848 (µM)] -0.522879): 1.192
- TLR7 reporter signal (Cpd-6 0.001 µM, log10[R848 (µM)] -1): 0.7791
- TLR7 reporter signal (Cpd-6 0.001 µM, log10[R848 (µM)] -1.52288): 0.2957
- TLR7 reporter signal (Cpd-6 0.001 µM, log10[R848 (µM)] -2): -0.1404
- TLR7 reporter signal (Cpd-6 0.003 µM, log10[R848 (µM)] 0): 9.923
- TLR7 reporter signal (Cpd-6 0.003 µM, log10[R848 (µM)] 0.477121): 37.8265
- TLR7 reporter signal (Cpd-6 0.003 µM, log10[R848 (µM)] 1): 84.946
- TLR7 reporter signal (Cpd-6 0.003 µM, log10[R848 (µM)] 1.47712): 98.5645
- TLR7 reporter signal (Cpd-6 0.003 µM, log10[R848 (µM)] 2): 102.64
- TLR7 reporter signal (Cpd-6 0.003 µM, log10[R848 (µM)] 2.47712): 101.614
- TLR7 reporter signal (Cpd-6 0.003 µM, log10[R848 (µM)] 3): 100.614
- TLR7 reporter signal (Cpd-6 0.003 µM, log10[R848 (µM)] -0.522879): 0.6697
- TLR7 reporter signal (Cpd-6 0.003 µM, log10[R848 (µM)] -1): 0.7155
- TLR7 reporter signal (Cpd-6 0.003 µM, log10[R848 (µM)] -1.52288): 0.0547
- TLR7 reporter signal (Cpd-6 0.003 µM, log10[R848 (µM)] -2): -0.2513
- TLR7 reporter signal (Cpd-6 0.01 µM, log10[R848 (µM)] -2): -0.4139
- TLR7 reporter signal (Cpd-6 0.1 μM, log10[R848 (µM)] 0): 1.818
- TLR7 reporter signal (Cpd-6 0.1 μM, log10[R848 (µM)] 0.477121): 11.9813
- TLR7 reporter signal (Cpd-6 0.1 μM, log10[R848 (µM)] 1): 58.4894
- TLR7 reporter signal (Cpd-6 0.1 μM, log10[R848 (µM)] 1.47712): 91.4766
- TLR7 reporter signal (Cpd-6 0.1 μM, log10[R848 (µM)] 2): 100.668
- TLR7 reporter signal (Cpd-6 0.1 μM, log10[R848 (µM)] 2.47712): 102.716
- TLR7 reporter signal (Cpd-6 0.1 μM, log10[R848 (µM)] 3): 98.9371
- TLR7 reporter signal (Cpd-6 0.1 μM, log10[R848 (µM)] -0.522879): 0.03031
- TLR7 reporter signal (Cpd-6 0.1 μM, log10[R848 (µM)] -1): 0.4916
- TLR7 reporter signal (Cpd-6 0.1 μM, log10[R848 (µM)] -1.52288): 0.6438
- TLR7 reporter signal (Cpd-6 0.1 μM, log10[R848 (µM)] -2): -0.1471
- TLR7 reporter signal (Cpd-6 0.3 μM, log10[R848 (µM)] 0): 0.5455
- TLR7 reporter signal (Cpd-6 0.3 μM, log10[R848 (µM)] 0.477121): 4.006
- TLR7 reporter signal (Cpd-6 0.3 μM, log10[R848 (µM)] 1): 31.2508
- TLR7 reporter signal (Cpd-6 0.3 μM, log10[R848 (µM)] 1.47712): 73.4318
- TLR7 reporter signal (Cpd-6 0.3 μM, log10[R848 (µM)] 2): 95.1399
- TLR7 reporter signal (Cpd-6 0.3 μM, log10[R848 (µM)] 2.47712): 101.486
- TLR7 reporter signal (Cpd-6 0.3 μM, log10[R848 (µM)] 3): 99.1034
- TLR7 reporter signal (Cpd-6 0.3 μM, log10[R848 (µM)] -0.522879): -0.01626
- TLR7 reporter signal (Cpd-6 0.3 μM, log10[R848 (µM)] -1): 0.3371
- TLR7 reporter signal (Cpd-6 0.3 μM, log10[R848 (µM)] -1.52288): 0.2617
- TLR7 reporter signal (Cpd-6 0.3 μM, log10[R848 (µM)] -2): -0.3984
- TLR7 reporter signal (Cpd-6 1 μM, log10[R848 (µM)] 0): 0.1648
- TLR7 reporter signal (Cpd-6 1 μM, log10[R848 (µM)] 0.477121): 0.6756
- TLR7 reporter signal (Cpd-6 1 μM, log10[R848 (µM)] 1): 11.4786
- TLR7 reporter signal (Cpd-6 1 μM, log10[R848 (µM)] 1.47712): 45.6507
- TLR7 reporter signal (Cpd-6 1 μM, log10[R848 (µM)] 2): 84.5912
- TLR7 reporter signal (Cpd-6 1 μM, log10[R848 (µM)] 2.47712): 96.6131
- TLR7 reporter signal (Cpd-6 1 μM, log10[R848 (µM)] 3): 99.4242
- TLR7 reporter signal (Cpd-6 1 μM, log10[R848 (µM)] -0.522879): -0.03548
- TLR7 reporter signal (Cpd-6 1 μM, log10[R848 (µM)] -1): 0.7835
- TLR7 reporter signal (Cpd-6 1 μM, log10[R848 (µM)] -1.52288): 0.4073
- TLR7 reporter signal (Cpd-6 1 μM, log10[R848 (µM)] -2): -0.4287
- TLR7 reporter signal (Cpd-6 3 μM, log10[R848 (µM)] 0): -0.1671
- TLR7 reporter signal (Cpd-6 3 μM, log10[R848 (µM)] 0.477121): -0.3319
- TLR7 reporter signal (Cpd-6 3 μM, log10[R848 (µM)] 1): 1.145
- TLR7 reporter signal (Cpd-6 3 μM, log10[R848 (µM)] 1.47712): 10.9886
- TLR7 reporter signal (Cpd-6 3 μM, log10[R848 (µM)] 2): 45.7638
- TLR7 reporter signal (Cpd-6 3 μM, log10[R848 (µM)] 2.47712): 76.6561
- TLR7 reporter signal (Cpd-6 3 μM, log10[R848 (µM)] 3): 93.6623
- TLR7 reporter signal (Cpd-6 3 μM, log10[R848 (µM)] -0.522879): -0.0924
- TLR7 reporter signal (Cpd-6 3 μM, log10[R848 (µM)] -1): 0.3881
- TLR7 reporter signal (Cpd-6 3 μM, log10[R848 (µM)] -1.52288): 0.1811
- TLR7 reporter signal (Cpd-6 3 μM, log10[R848 (µM)] -2): -0.3984
- TLR7 reporter signal (Cpd-6 10 μM, log10[R848 (µM)] 0): -0.3585
- TLR7 reporter signal (Cpd-6 10 μM, log10[R848 (µM)] 0.477121): 0.00887
- TLR7 reporter signal (Cpd-6 10 μM, log10[R848 (µM)] 1): -0.3311
- TLR7 reporter signal (Cpd-6 10 μM, log10[R848 (µM)] 1.47712): 1.483
- TLR7 reporter signal (Cpd-6 10 μM, log10[R848 (µM)] 2): 7.633
- TLR7 reporter signal (Cpd-6 10 μM, log10[R848 (µM)] 2.47712): 30.5109
- TLR7 reporter signal (Cpd-6 10 μM, log10[R848 (µM)] 3): 70.7738
- TLR7 reporter signal (Cpd-6 10 μM, log10[R848 (µM)] -0.522879): 0.08501
- TLR7 reporter signal (Cpd-6 10 μM, log10[R848 (µM)] -1): 0.6054
- TLR7 reporter signal (Cpd-6 10 μM, log10[R848 (µM)] -1.52288): 0.5159
- TLR7 reporter signal (Cpd-6 10 μM, log10[R848 (µM)] -2): -0.6941
- TLR7 reporter signal (Cpd-6 30 μM, log10[R848 (µM)] 0): -0.8205
- TLR7 reporter signal (Cpd-6 30 μM, log10[R848 (µM)] 0.477121): -0.1671
- TLR7 reporter signal (Cpd-6 30 μM, log10[R848 (µM)] 1): -0.3932
- TLR7 reporter signal (Cpd-6 30 μM, log10[R848 (µM)] 1.47712): 0.7037
- TLR7 reporter signal (Cpd-6 30 μM, log10[R848 (µM)] 2): 0.5559
- TLR7 reporter signal (Cpd-6 30 μM, log10[R848 (µM)] 2.47712): 4.178
- TLR7 reporter signal (Cpd-6 30 μM, log10[R848 (µM)] 3): 28.3207
- TLR7 reporter signal (Cpd-6 30 μM, log10[R848 (µM)] -0.522879): -0.2084
- TLR7 reporter signal (Cpd-6 30 μM, log10[R848 (µM)] -1): 0.05618
- TLR7 reporter signal (Cpd-6 30 μM, log10[R848 (µM)] -1.52288): 0.1597
- TLR7 reporter signal (Cpd-6 30 μM, log10[R848 (µM)] -2): -0.9107
- TLR7 reporter signal (Cpd-6 100 μM, log10[R848 (µM)] 0): -0.4154
- TLR7 reporter signal (Cpd-6 100 μM, log10[R848 (µM)] 0.477121): -0.3459
- TLR7 reporter signal (Cpd-6 100 μM, log10[R848 (µM)] 1): -0.6712
- TLR7 reporter signal (Cpd-6 100 μM, log10[R848 (µM)] 1.47712): 0.8663
- TLR7 reporter signal (Cpd-6 100 μM, log10[R848 (µM)] 2): 0.5381
- TLR7 reporter signal (Cpd-6 100 μM, log10[R848 (µM)] 2.47712): 4.485
- TLR7 reporter signal (Cpd-6 100 μM, log10[R848 (µM)] 3): 25.5163
- TLR7 reporter signal (Cpd-6 100 μM, log10[R848 (µM)] -0.522879): -0.01478
- TLR7 reporter signal (Cpd-6 100 μM, log10[R848 (µM)] -1): 0.612
- TLR7 reporter signal (Cpd-6 100 μM, log10[R848 (µM)] -1.52288): 1.063
- TLR7 reporter signal (Cpd-6 100 μM, log10[R848 (µM)] -2): -0.5529
